From article PMC11252000, “MFSD1 with its accessory subunit GLMP functions as a general dipeptide uniporter in lysosomes” (Nature Cell Biology, 2024) come the findings set out here.

Assay [1] has as its target T1, MFSD1–GLMP oocytes (MFSD1L11A/L12A-EmGFP + GLMPY400A-mKate2) (Mus musculus, UniProt Q9DC37, L11A/L12A).
T1 construct: heterodimer at plasma membrane of Xenopus laevis oocytes; lysosomal sorting mutants; EmGFP and mKate2 fusions; with Glycosylated lysosomal membrane protein
T1 sequence (Q9DC37 1-464 L11A/L12A): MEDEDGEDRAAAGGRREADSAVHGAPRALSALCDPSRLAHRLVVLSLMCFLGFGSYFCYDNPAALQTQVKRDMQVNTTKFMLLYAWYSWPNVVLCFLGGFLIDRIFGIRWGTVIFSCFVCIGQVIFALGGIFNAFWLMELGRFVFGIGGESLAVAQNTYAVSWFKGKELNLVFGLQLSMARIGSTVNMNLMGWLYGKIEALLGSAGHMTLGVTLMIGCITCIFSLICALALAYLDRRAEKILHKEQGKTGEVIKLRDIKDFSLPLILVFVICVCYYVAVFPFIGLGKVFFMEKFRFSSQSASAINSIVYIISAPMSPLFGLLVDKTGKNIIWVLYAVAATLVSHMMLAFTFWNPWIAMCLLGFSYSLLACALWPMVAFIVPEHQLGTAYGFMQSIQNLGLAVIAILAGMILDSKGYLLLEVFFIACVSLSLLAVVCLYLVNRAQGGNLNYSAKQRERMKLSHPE
T1 sequence (Q9JHJ3 36-404 Y400A partner): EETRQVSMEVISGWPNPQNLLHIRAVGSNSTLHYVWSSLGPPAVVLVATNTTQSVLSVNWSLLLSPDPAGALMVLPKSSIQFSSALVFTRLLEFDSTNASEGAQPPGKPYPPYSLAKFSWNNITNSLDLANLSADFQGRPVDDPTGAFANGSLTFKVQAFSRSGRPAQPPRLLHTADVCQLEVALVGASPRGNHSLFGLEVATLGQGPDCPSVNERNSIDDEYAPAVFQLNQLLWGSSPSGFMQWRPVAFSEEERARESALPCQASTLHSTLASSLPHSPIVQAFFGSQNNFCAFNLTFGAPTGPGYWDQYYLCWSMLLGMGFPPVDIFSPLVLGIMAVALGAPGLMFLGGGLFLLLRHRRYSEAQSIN
Kind of assay: TEVC competition with Lys–Ala current in oocytes. Particulars: read-out: % inhibition at 10 mM. It counts as cell-based.

Assay [2] deals with T2, MFSD1 (MFSD1WT, mmMFSD1, MFSD1-strep) (Mus musculus, UniProt Q9DC37).
T2 construct: full length; N-terminal Twin-Strep-tag + HRV 3C site; Expi293F; purified in DDM/CHS; liposomes POPE:POPG:CHS for transport
T2 sequence (Q9DC37 1-464): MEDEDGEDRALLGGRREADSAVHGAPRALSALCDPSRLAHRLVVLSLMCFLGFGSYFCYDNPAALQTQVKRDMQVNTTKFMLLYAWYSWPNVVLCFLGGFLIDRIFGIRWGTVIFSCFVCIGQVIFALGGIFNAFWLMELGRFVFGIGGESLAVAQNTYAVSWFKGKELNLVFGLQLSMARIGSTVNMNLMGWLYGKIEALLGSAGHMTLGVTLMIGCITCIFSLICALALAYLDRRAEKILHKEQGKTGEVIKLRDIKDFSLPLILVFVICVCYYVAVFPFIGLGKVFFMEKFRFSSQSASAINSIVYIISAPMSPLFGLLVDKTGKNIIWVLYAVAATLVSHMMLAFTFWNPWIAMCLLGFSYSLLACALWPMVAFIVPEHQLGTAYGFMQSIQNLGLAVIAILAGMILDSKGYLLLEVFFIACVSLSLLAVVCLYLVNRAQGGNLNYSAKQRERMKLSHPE
Description: nanoDSF thermal shift. Type of assay: binding. Particulars: 5 mM ligand, pH 7.5, DDM/CHS.

Assay [3] addresses T3, MFSD1 (MFSD1WT, mmMFSD1, MFSD1-strep) (Mus musculus, UniProt Q9DC37, Y56A).
T3 construct: full length; N-terminal Twin-Strep-tag + HRV 3C site; Expi293F; purified in DDM/CHS; liposomes POPE:POPG:CHS for transport
T3 sequence (Q9DC37 1-464 Y56A): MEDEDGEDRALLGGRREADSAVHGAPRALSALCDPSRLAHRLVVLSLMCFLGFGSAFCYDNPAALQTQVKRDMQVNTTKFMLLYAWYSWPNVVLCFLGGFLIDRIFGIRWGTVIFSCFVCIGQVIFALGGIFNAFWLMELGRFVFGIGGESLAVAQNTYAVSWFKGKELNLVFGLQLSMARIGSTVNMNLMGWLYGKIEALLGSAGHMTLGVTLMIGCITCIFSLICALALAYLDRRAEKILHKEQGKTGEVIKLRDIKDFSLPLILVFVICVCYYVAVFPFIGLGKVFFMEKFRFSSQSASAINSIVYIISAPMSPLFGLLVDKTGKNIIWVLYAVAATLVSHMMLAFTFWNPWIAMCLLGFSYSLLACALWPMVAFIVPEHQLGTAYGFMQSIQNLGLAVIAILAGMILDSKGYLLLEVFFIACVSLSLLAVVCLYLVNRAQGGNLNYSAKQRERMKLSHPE
Description: proteoliposome uptake, pyranine fluorescence. Type of assay: biochemical. As to conditions: pH 6.8, 22 °C, valinomycin; 2.5 mM peptide.

Assay [4] addresses MFSD1-strep (mouse major facilitator superfamily domain containing 1 protein with N-terminal Twin-Strep-tag) (mouse) (UniProt Q9DC37).

Where a SMILES comes first, the peptide text is derived from it.

Usually inhibition stands for how much of the control response was suppressed. Regarding `N[C@@H](CCC(=O)O)C(=O)N[C@@H](CO)C(=O)O` [Glu–Ser] (H-Glu-Ser-OH), the inhibition at 10000 µM in assay [1] came out at 26 ± 3%.

The ΔTm is the shift of the melting midpoint relative to a reference. `CC(C)C[C@H](NC(=O)[C@@H](N)CC(C)C)C(=O)O` [Leu–Leu]: the ΔTm in assay [2] was determined as 14 °C.

On to `N[C@@H](Cc1c[nH]cn1)C(=O)N[C@@H](CO)C(=O)O` [His-Ser] (H-His-Ser-OH), for which the “uptake rate vs MFSD1WT” value in assay [3] is given as ~ 50 % reduction.

Regarding His–Ala dipeptide, in assay [4], the KM of His–Ala uptake into MFSD1 proteoliposomes (pyranine assay) is 119 µM.
